± gives the uncertainty stated by the source.
Assay: xn = mol fraction of the nth substance listed

Cc1cccc(N)c1 + C1CCCCC1
303.15 K, 101.33 kPa
Conditions	viscosity [mPa·s]
x1 = 0.2	0.95 ± 0.021
x1 = 0.398	1.13 ± 0.021
x1 = 0.559	1.35 ± 0.022
x1 = 0.786	1.88 ± 0.025

C1CCC(C2CCCCC2)CC1 + C1CC[C@H]2CCCC[C@@H]2C1
viscosity [mPa·s], 102 kPa
Conditions	x2 = 0.1185	x2 = 0.2312	x2 = 0.3405	x2 = 0.4451	x2 = 0.546	x2 = 0.6433	x2 = 0.7374	x2 = 0.828	x2 = 0.9154
293.15 K	3.72 ± 0.03	3.43 ± 0.03	3.17 ± 0.03	2.96 ± 0.03	2.77 ± 0.02	2.6 ± 0.02	2.45 ± 0.02	2.33 ± 0.02	2.21 ± 0.02
303.15 K	2.95 ± 0.03	2.74 ± 0.02	2.56 ± 0.02	2.4 ± 0.02	2.27 ± 0.02	2.15 ± 0.02	2.03 ± 0.02	1.94 ± 0.02	1.85 ± 0.02
313.15 K	2.39 ± 0.02	2.24 ± 0.02	2.11 ± 0.02	1.99 ± 0.02	1.89 ± 0.02	1.8 ± 0.02	1.71 ± 0.02	1.64 ± 0.02	1.57 ± 0.02
323.15 K	1.98 ± 0.02	1.87 ± 0.02	1.77 ± 0.02	1.68 ± 0.02	1.6 ± 0.02	1.52 ± 0.02	1.46 ± 0.02	1.4 ± 0.02	1.34 ± 0.02

Cc1cccc(N)c1 + CC1CCCCC1
303.15 K, 101.33 kPa
Conditions	viscosity [mPa·s]
x1 = 0.204	0.79 ± 0.018
x1 = 0.4	0.96 ± 0.018
x1 = 0.6	1.25 ± 0.02
x1 = 0.8	1.75 ± 0.023

CCCCOCCOCCOCCCC + CC1COC(=O)O1
viscosity [mPa·s], 101.3 kPa
Conditions	298.15 K	308.15 K	318.15 K
x1 = 0.007	2.562 ± 0.032	2.064 ± 0.026	1.704 ± 0.022
x1 = 0.0158	2.574 ± 0.032	2.086 ± 0.026	1.721 ± 0.022
x1 = 0.059	2.676 ± 0.033	2.174 ± 0.027	1.735 ± 0.022
x1 = 0.1317	2.748 ± 0.035	2.244 ± 0.029	1.768 ± 0.023
x1 = 0.2166	2.735 ± 0.035	2.263 ± 0.029	1.773 ± 0.023
x1 = 0.3183	2.7 ± 0.035	2.187 ± 0.029	1.729 ± 0.023
x1 = 0.356	2.674 ± 0.035	2.161 ± 0.029	1.712 ± 0.023
x1 = 0.3871	2.649 ± 0.035	2.141 ± 0.029	1.695 ± 0.023
x1 = 0.4126	2.635 ± 0.035	2.129 ± 0.029	1.686 ± 0.023
x1 = 0.4929	2.579 ± 0.035	2.086 ± 0.029	1.649 ± 0.023
x1 = 0.5658	2.534 ± 0.035	2.051 ± 0.028	1.623 ± 0.023
x1 = 0.5869	2.526 ± 0.035	2.045 ± 0.029	1.62 ± 0.023
x1 = 0.6616	2.487 ± 0.035	2.013 ± 0.029	1.595 ± 0.023
x1 = 0.7058	2.475 ± 0.035	1.999 ± 0.029	1.584 ± 0.023
x1 = 0.748	2.469 ± 0.035	1.992 ± 0.029	1.566 ± 0.023
x1 = 0.8266	2.402 ± 0.035	1.954 ± 0.029	1.537 ± 0.023
x1 = 0.9183	2.323 ± 0.035	1.899 ± 0.029	1.489 ± 0.023

CN1CCCN2CCCN=C12 + CC(=O)O
100 kPa, x1 = 0.1125
Conditions	viscosity [mPa·s]
294.45 K	12.9 ± 1.6
298.17 K	11.3 ± 1.4
308.1 K	8.1 ± 1
323.06 K	5.4 ± 0.7

CCCCCCCCCCCC(=O)O + CC(C)[C@@H]1CC[C@@H](C)C[C@H]1O
viscosity [mPa·s]
Conditions	293.15 K	298.15 K	303.15 K	308.15 K	313.15 K	318.15 K	323.15 K
100 kPa, x1 = 0.25	–	28.1 ± 0.26	20.91 ± 0.19	15.93 ± 0.15	12.4 ± 0.11	9.84 ± 0.09	7.94 ± 0.07
100 kPa, x2 = 0.33	33.06 ± 0.56	24.42 ± 0.41	18.63 ± 0.32	14.51 ± 0.24	11.45 ± 0.19	9.293 ± 0.16	7.61 ± 0.13
101 kPa, x1 = 0.333	21.81 ± 0.85	–	12.5 ± 0.5	–	7.657 ± 0.3	–	5.112 ± 0.2

CCCC[N+](CCCC)(CCCC)CCCC.[Br-] + CC(O)CO
101 kPa, x1 = 0.2
Conditions	viscosity [mPa·s]
298.15 K	96.3 ± 2.2
303.15 K	71.6 ± 1
308.15 K	54.5 ± 0.5
313.15 K	42.1 ± 0.5
318.15 K	33.2 ± 0.4
323.15 K	26.6 ± 0.3

CCCCCCCCCCCCCC(=O)OCC + CCC1CCCCC1
viscosity [mPa·s], 100 kPa
Conditions	x2 = 0.0998	x2 = 0.2	x2 = 0.3001	x2 = 0.4002	x2 = 0.5	x2 = 0.6	x2 = 0.6999	x2 = 0.8	x2 = 0.9
293.15 K	4.251 ± 0.099	3.768 ± 0.087	3.305 ± 0.076	2.865 ± 0.065	2.44 ± 0.055	2.053 ± 0.046	1.709 ± 0.038	1.387 ± 0.031	1.105 ± 0.024
298.15 K	3.763 ± 0.088	3.351 ± 0.077	2.962 ± 0.068	2.582 ± 0.059	2.221 ± 0.05	1.88 ± 0.042	1.572 ± 0.035	1.286 ± 0.028	1.034 ± 0.023
303.15 K	3.361 ± 0.078	3.011 ± 0.069	2.672 ± 0.061	2.34 ± 0.053	2.022 ± 0.046	1.726 ± 0.039	1.45 ± 0.032	1.199 ± 0.026	0.972 ± 0.021
308.15 K	3.01 ± 0.07	2.709 ± 0.062	2.411 ± 0.055	2.12 ± 0.048	1.845 ± 0.042	1.579 ± 0.035	1.335 ± 0.03	1.11 ± 0.025	0.904 ± 0.02
313.15 K	2.694 ± 0.063	2.432 ± 0.056	2.18 ± 0.05	1.925 ± 0.044	1.685 ± 0.038	1.454 ± 0.033	1.234 ± 0.027	1.031 ± 0.023	0.839 ± 0.018
318.15 K	2.461 ± 0.057	2.227 ± 0.051	2 ± 0.046	1.775 ± 0.04	1.558 ± 0.035	1.353 ± 0.03	1.152 ± 0.026	0.964 ± 0.021	0.791 ± 0.017
323.15 K	2.242 ± 0.052	2.032 ± 0.047	1.829 ± 0.042	1.628 ± 0.037	1.436 ± 0.032	1.251 ± 0.028	1.071 ± 0.024	0.9 ± 0.02	0.736 ± 0.016

C=C1CCC2CC1C2(C)C (configuration not stated) + CCCCCC
298.15 K, 101.33 kPa
Conditions	viscosity [mPa·s]
x2 = 0.0421	1.455 ± 0.017
x2 = 0.0626	1.392 ± 0.017
x2 = 0.2031	1.055 ± 0.013
x2 = 0.2799	0.914 ± 0.012
x2 = 0.3765	0.772 ± 0.01
x2 = 0.4939	0.634 ± 0.009
x2 = 0.5597	0.57 ± 0.008
x2 = 0.6601	0.488 ± 0.007
x2 = 0.7454	0.427 ± 0.006
x2 = 0.8217	0.381 ± 0.006
x2 = 0.8935	0.344 ± 0.005
x2 = 0.9595	0.312 ± 0.005

CCCCCCCCCCCCOC(C)=O + CCCCCC
303.15 K, 101.3 kPa
Conditions	viscosity [mPa·s]
x1 = 0.1919	0.5038 ± 0.0036
x1 = 0.3182	0.7197 ± 0.005
x1 = 0.4783	1.079 ± 0.0074
x1 = 0.522	1.2 ± 0.0083
x1 = 0.748	1.958 ± 0.014

Cc1cccc(N)c1 + CCCCCC
viscosity [mPa·s], 101.33 kPa
Conditions	x1 = 0.236	x1 = 0.396	x1 = 0.579	x1 = 0.787
295.15 K	0.46 ± 0.01	0.69 ± 0.013	0.95 ± 0.015	1.54 ± 0.019
305.15 K	0.39 ± 0.009	0.55 ± 0.01	0.77 ± 0.012	1.25 ± 0.016

CCCCCCCCCCCC(=O)O + CCCCCCCCCC(=O)O
100 kPa, x1 = 0.33
Conditions	viscosity [mPa·s]
293.15 K	12.89 ± 0.29
298.15 K	10.76 ± 0.24
303.15 K	9.199 ± 0.21
308.15 K	7.939 ± 0.18
313.15 K	6.909 ± 0.16
318.15 K	6.059 ± 0.14
323.15 K	5.349 ± 0.12
